We go through three compounds from US12600742B2, “Markers, conjugates, compositions and methods for hypoxia imaging, mapping, and therapy” (WWIKY BIOSCIENCES INC., priority 2017, dated 2026).

For data set [1], the system named is FaDu cells. In words: Hypoxia-selective sub-cellular localization of A-TPZ, click chemistry. Format: cell-based, human. As for the experimental part: FaDu cells (˜0.5 million) were seeded on coverslips in 30 mm dishes and were incubated overnight at 37° C. with 5% CO2 to get attached to the surface. Cells were then treated with increasing concentrations (1-30 μM) of drug (reconstituted in DMSO at concentration of 0.5 M) and were incubated under normoxic and hypoxic (<0.1% O2) conditions for 24 hours. Post-treatment, cells were fixed with 2% paraformaldehyde for 20 minutes followed by blocking and permeabilization in 1% BSA and 0.1% Triton-X-100 for 20 minutes. Click reaction was performed in the presence of Alexa 594 alkyne using the Click-iT Cell Reaction Buffer Kit (Thermo Fisher Scientific, no: C10269), according to manufacturer's protocol. Nuclei were counterstained with Hoechst, and images were obtained using confocal microscopy.
FaDu cells were seeded on coverslips and were incubated overnight to adhere. The cells were then treated with increasing doses of A-TPZ for 24 hours under normoxic and hypoxic (<0.1% O2) conditions. Cells were fixed in 2% paraformaldehyde and Click chemistry was performed at room temperature for 30 minutes using Alexa 594 alkyne. Nuclei were counterstained with Hoechst, and images were obtained using confocal microscopy.

For data set [2], the system named is FaDu cells. The experiment in a line: Crystal violet staining (CVS) assay. Format: cell-based, human. The protocol: FaDu cells (3000 cells/well) were seeded on 96-well microtitre plates and were incubated overnight at 37° C. with 5% CO2 to get attached to the surface. Next day, the cells were treated with increasing doses of drug (1-100 μM) and the plates were incubated under normoxic (20% O2) and hypoxic (0.1% O2) conditions for 72 hours. Culture medium (DMEM and low glucose DMEM) without cells was set for background, according to the experimental set up. After the required incubation period, the media was aspirated, and the plates were allowed to dry for a few minutes followed by addition of crystal violet solution for 20 minutes in order to stain the cells. Subsequently, the dye was discarded, plates were washed with water and let to dry overnight. Methanol (150 μL) was added to the wells and incubated for 20 minutes, so as to dissolve the crystals. Absorbance of the samples was measured spectrophotometrically using an ELISA plate reader at a wavelength of 520 nm. The absorbance of background wavelength (media only) was subtracted from the other absorbance results.
FIG. 10 depicts hypoxic selective cytotoxicity of A-TPZ. […] In CVS assay (i), FaDu cells (3000 cells/well) were seeded on 96 well plates and were incubated overnight to adhere. The cells were then treated with increasing doses of A-TPZ and the plates were exposed to both normoxic (20% O2) and hypoxic (0.1% O2) conditions for 72 hours. Culture medium (DMEM) without cells was set for background. Media was aspirated post-treatment followed by addition of crystal violet solution to stain the cells. Crystals were dissolved using methanol and absorbance of the samples was measured spectrophotometrically. Error bars represent the standard error of the mean. In CFA, (ii), FaDu cells (optimum density-ranging from 300 to 3000 cells) were seeded on 60 mm plates and were incubated overnight to adhere. Next day, the cells were treated with increasing A-TPZ doses and the plates were exposed to both normoxic (20% O2) and hypoxic (0.5% O2) conditions for 24 hours. […] Colonies were stained with crystal violet solution and counted. […]

Data set [3] deals with human and murine cancer cell lines. To be noted: literature; cited from earlier work.
Another data set concerns FaDu tumors. In words: In vivo evaluation of radiosensitization therapy by IAZA using click mapping. Also on record: species or system Nu/Nu mice. The protocol:
Tissue sections were air dried for 25 minutes, fixed for 5 minutes in −20° C. acetone; air dried 25 minutes and blocked in PBS with 1% BSA for 20 minutes. Sections were incubated with primary antibodies for small vessel endothelium [1:100 rabbit anti-CD34 (abcam)] or hypoxia [1:100 rabbit anti-pimonidazole Hypoxyprobe)] for 2 hours at room temperature, followed by 3 five minute washes in 1×PBS. The secondary antibody (Alexafluor 647 goat anti-rabbit 1:1000 Molecular Probes with 1×DAPI to stain DNA) was incubated for 30 minutes at […] room temperature in the dark, followed by 3 five minute washes with 1×PBS. The Click-IT reaction cocktail was incubated with the sections for 30 minutes. Sections were washed 5 times with 1×PBS for 5 minutes and mounted using Mowiol 4-88 (Calbiochem) mounting media. Slides were stored at 4° C. until imaged. Images were obtained by tile scan with a Plan-Apochromat 10X/0.45 numerical aperture lens on a Zeiss 710 confocal microscope using Zen 2011 software. […]
Male Nu/Nu mice (Charles River Laboratories) aged 6 weeks were used and cared for according to the CCAC guidelines. […] The tumors were measured daily until the volume reached 0.4 cm3. […] Temperature and respiration were monitored and recorded every five minutes throughout the scans (Small animal Monitoring and Gating System, SA Instruments Inc.). […] Animals were monitored and tumors measured for up to 16 days. […]

Data set [4] concerns FaDu cells. The experiment in a line: Comparison of hypoxia selective uptake of ACN and Pimonidazole in vitro. Format: cell-based, human. The protocol:
FaDu cells were grown on coverslips (as described above) and treated simultaneously with 100 μM ACN and 100 μM Pimonidazole. The cells were subsequently exposed to normoxic (20% Oxygen), hypoxic (1% Oxygen) or anoxic (0% Oxygen) conditions for 6 hours, and fixed in 2% PFA. Standard Pimonidazole IHC was performed as described elsewhere using an Alexafluor 647 labelled secondary antibody. Click chemistry was performed as previously described using an Alexafluor 555 conjugated alkyne followed by nuclear staining with Hoechst. Mounted coverslips on glass slides were imaged as described earlier.

A further data set relates to FaDu xenograft tumors. The experiment in a line: Assessment of ACN as a hypoxia tracer in tumor-bearing mice. The note with it: 80 mg/Kg intraperitoneally, 2 hours post-injection. Format: in vivo, BALB/c nude mice. As for the experimental part:
Female BALB/c nude mice (Charles River Laboratories) aged 6 weeks were used and cared for according to the CCAC guidelines. We used a biflanked sub-cutaneous tumor model where the tumor in the left flank was untreated (control) and the tumor in the right flank served as the ‘treatment’ group. We subcutaneously injected 6×10^6 FaDu cells in 0.1 ml of sterile 0.9% NaCl into the upper right flank to form palpable tumors. The tumors were measured daily until the volume reached 10 mm3. The mice were divided into 4 groups and injected intraperitoneally in 0.15 ml 0.9% saline with: 1-80 mg/Kg ACN, 2-80 mg/Kg pimonidazole (Hypoxyprobe), 3-80 mg/Kg ACN:pimonidazole in a 1:1 ratio and 4-0.9% saline control. Mice were sacrificed 2 hours post-injection, tumors removed and frozen in OCT. Seven micron serial sections were taken of each tumor, dried and stored at −80° C.
Tissue sections were air dried for 25 minutes, fixed for 5 minutes in −20° C. acetone; air dried 25 minutes and blocked in PBS with 1% BSA for 20 minutes. Sections were incubated with primary antibodies for small vessel endothelium [1:100 rabbit anti-CD34 (abcam)] or hypoxia [1:100 rabbit anti-pimonidazole Hypoxyprobe)] for 2 hours at room temperature, followed by 3 five minute washes in 1×PBS. […]

For `[N-]=[N+]=NCCOCCNc1n[n+]([O-])c2ccccc2[n+]1[O-]` [A-TPZ, 3-(2-(2-Azidoethoxy)ethyl)amino-1,2,4-benzotriazine 1,4-dioxide], the “dose dependence of signal intensity” value with FaDu cells [1] (1-30 μM, hypoxia) is reported as “dose-dependent”. In addition, the “click fluorescence localization in hypoxic cells” value in the data set with FaDu cells [1] (hypoxia (<0.1 O2), 24 hours, 1-30 μM) is on record as “selective sub-cellular localization”. The “click fluorescence in normoxic drug treated cells” value in the data set with FaDu cells [1] (normoxic, 24 hours) is listed as “No fluorescence”. The “cytotoxicity under hypoxia (CVS)” value in the data set on FaDu cells [2] (0.1% O2, 72 hours, 1-100 μM) was “selective cytotoxicity in low oxygen levels”. Besides, the “toxicity in the normoxic group (CVS)” value with FaDu cells [2] (20% O2, 72 hours) is on record as “minimal toxicity”. Further, the “toxicity compared to parent compound TPZ” value with FaDu cells [2] (data not shown) is “slightly less toxic”.

With `O=[N+]([O-])c1nccn1[C@@H]1O[C@H](C[125I])[C@@H](O)[C@@H]1O` [IAZA], in data set [3], the “toxicity to cancer cell lines (reported)” value was “low toxicity” and the “uptake by cells (reported)” value is “selectively taken up by hypoxic cells”. In the data set on FaDu tumors (400 mg/Kg IAZA + single dose of 10 Gy radiation), the “effect on tumor and hypoxia, IAZA and radiation co-treated” value is “both tumor shrinkage and reduced hypoxia”. For the same compound, in the data set with FaDu tumors (400 mg/Kg IAZA intraperitoneally, no radiation, ACN click mapping), the “effect on tumor hypoxia, IAZA alone” value was “had no effect on hypoxia”.

Consider `O=[N+]([O-])c1nccn1CC(O)CN1CCCCC1` (stereo not shown) [Pimonidazole, reference compound], for which, in the data set with FaDu cells [4] (100 μM of each compound, 6 h), the “staining detected by oxygen condition” value is “detected in oxygen deprived cells”. For the same compound, in the data set with FaDu cells [4] (hypoxic <0.1% O2 cells, 100 μM), the “sub-cellular distribution of signal” value was “mostly concentrated in the cytoplasm”. Moreover, the “localization in tumor sections” value in the data set with FaDu xenograft tumors was “co-localize to hypoxic areas bordering necrotic regions”.
